Laboratory results: ChEMBL document CHEMBL1124768 (1990)

How the values were obtained:
Format in all cases: functional
Rattus norvegicus [1] = experiment: Inhibition of carrageenan-induced 4 hours after 50 mg/kg i.p. administration in rats.; settings: ip, route intraperitoneal
Rattus norvegicus [2] = experiment: Inhibitory activity was measured on carrageenan-induced paw edema at a dose of 25 mg/Kg at 4 hours after intraperitoneal administration in rats; settings: ip
Rattus norvegicus [3] = experiment: Inhibitory activity was measured on carrageenan-induced paw edema at a dose of 100 mg/Kg at 4 hours after intraperitoneal administration in rats; settings: ip

SMILES | inhibition in vivo at 50 mg/kg (Rattus norvegicus [1]) [%] | inhibition in vivo at 25 mg/kg (Rattus norvegicus [2]) [%] | inhibition in vivo at 100 mg/kg (Rattus norvegicus [3]) [%]
C/C(=N\OCCC(=O)O)C1CCCCC1 | 0 |  | 
O=C(O)CCON=C(c1ccccc1)c1ccccc1 | 11 |  | 
O=C(O)Cc1ccccc1Nc1c(Cl)cccc1Cl [DICLOFENAC] | 67 | 31 | 
O=C(O)CCO/N=C/C1CCCCC1 | 0 |  | 
O=C(O)CCON=C1C2CC3CC(C2)CC1C3 | 19 |  | 
C/C(=N\OCCC(=O)O)C1CC1 | 16 |  | 
O=C(O)CCO/N=C1/CC2CCC1C2 (stereo not drawn) | 16 |  | 
CC/C(=N\OCCC(=O)O)c1ccccc1 | 28 | 19 | 20
CCCC(CCC)=NOCCC(=O)O | 0 |  | 
O=C(O)CCO/N=C/c1ccco1 | 15 |  | 
O=C(O)CCON=C1c2ccccc2-c2ccccc21 | 0 |  | 
C/C(=N\OCCC(=O)O)c1ccccc1 | 40 | 23 | 31
CC(C)=NOCCC(=O)O | 21 |  | 35
O=C(O)CCO/N=C/c1ccccc1 | 66 | 15 | 
CCC(/C=N/OCCC(=O)O)CC | 0 |  | 
CC(C)C(=NOCCC(=O)O)C(C)C | 12 |  | 
O=C(O)CCO/N=C\c1ccccc1 | 0 |  | 
O=C(O)CCO/N=C/c1cccs1 | 0 |  | 
CC/C(=N\OCCC(=O)O)C(C)C | 35 | 21 | < 27
